Legend:
souris = experiment: Acute toxicity in mice, intraperitoneal route; format: in vivo; conditions: i.p.
Source text: La toxicité aiguë des composés selon l'invention a également été étudiée chez la souris par voie intrapéritonéale. Le tableau II ci-après donne à titre d'exemple non limitatif les résultats obtenus avec certains des composés selon l'invention.

[1] = test system: redressements à l'apomorphine; experiment: Antagonism of apomorphine-induced rearing (climbing) in mice; format: in vivo; conditions: souris, i.p.
Source text: Ces propriétés psychotropes ont été mises en évidence chez la souris, notamment par le test de l'antagonisme aux redressements à l'apomorphine réalisé d'après le protocole décrit par G. GOURET et Coll. dans J. Pharmacol. (Paris) (^1973), ^4, 341.

| Compound | Toxicité (souris) DL 50 (souris) [mg/kg/i.p.] | Antagonisme aux redressements à l'apomorphine DE 50 [1] |
| --- | --- | --- |
| COc1cccc(C(=O)NC2CC3CCC(C2)[N+]3([O-])Cc2ccccc2)c1OC (stereo not shown) [compound 1, N-oxyde axial du (diméthoxy-2,3) benzoylamino-3 N-benzyl aza-8 bicyclo [3.2,1] octane] | > 400 | 2,2 mg/kg/i.p. |
| COc1cccc(C(=O)NC2CC3CCC(C2)[N+]3([O-])Cc2ccccc2)c1OC (stereo not shown) [compound 2, N-oxyde équatorial du (diméthoxy-2,3) benzoylamino-3 N-benzyl aza-8 bicyclo[3.2.1] octane] | 400 | 0,27 mg/kg/i.p. |

Source: patent EP0127529A2, “Aminocyclic N-oxide derivatives, process for their preparation and their therapeutical use” (DELALANDE S.A., priority 1983, dated 1984)
